In assay [1] the test system is INH-resistant Mtb clinical isolate with katG S315T mutation. The assay is classed as cell-based, Mycobacterium tuberculosis.
Assay [2] has as its system INH-resistant Mtb clinical isolate with inhA promoter mutation. The assay is classed as cell-based, Mycobacterium tuberculosis.

In article PMC12467433, “Isoniazid-Derived Hydrazones Featuring Piperazine/Piperidine Rings: Design, Synthesis, and Investigation of Antitubercular Activity” (Biomolecules, 2025) one finds MIC data, which are given here for eight compounds.

Values after ≈ are worked out from the molar mass of the structure shown.

As for `CCOC(=O)C1CCN(c2ccc(C=NNC(=O)c3ccncc3)cc2)CC1` [IP12, Ethyl 1-(4-((2-isonicotinoylhydrazono)methyl)phenyl)piperidine-4-carboxylate], the MIC in assay [1] came to 25 µM (≈ 9.51 µg/mL); in assay [2], 1.56 µM (≈ 0.593 µg/mL).
`O=C(NN=Cc1ccc(N2CCN(c3ncccn3)CC2)cc1)c1ccncc1` [IP9, N′-(4-(4-(Pyrimidin-2-yl)piperazin-1-yl)benzylidene)isonicotinohydrazide]: the minimal inhibitory concentration (MIC) in assay [1] amounted to 25 µM (≈ 9.69 µg/mL); in assay [2] it was 3.12 µM (≈ 1.21 µg/mL).
On to `NC(=O)C1CCN(c2ccc(C=NNC(=O)c3ccncc3)cc2)CC1` [IP13, 1-(4-((2-Isonicotinoylhydrazono)methyl)phenyl)piperidine-4-carboxamide], for which the MIC in assay [1] was found to be 50 µM (≈ 17.6 µg/mL); in assay [2] it was 1.56 µM (≈ 0.548 µg/mL).
In the case of `O=C(NN=Cc1ccc(N2CCN(C3CCCCC3)CC2)cc1)c1ccncc1` [IP11, N′-(4-(4-Cyclohexylpiperazin-1-yl)benzylidene)isonicotinohydrazide], the minimum inhibitory concentration (MIC) was 12.5 µM (≈ 4.89 µg/mL) in assay [1] and 0.78 µM (≈ 0.305 µg/mL) in assay [2].
For the compound `CN1CCN(c2ccc(C=NNC(=O)c3ccncc3)cc2)CC1` [IP10, N′-(4-(4-Methylpiperazin-1-yl)benzylidene)isonicotinohydrazide], the minimum inhibitory concentration (MIC) in assay [1] was 25 µM (≈ 8.09 µg/mL); in assay [2], 1.56 µM (≈ 0.505 µg/mL).
For `COc1ccc(N2CCN(c3ccc(C=NNC(=O)c4ccncc4)cc3)CC2)cc1` [IP7, N′-(4-(4-(4-Methoxyphenyl)piperazin-1-yl)benzylidene)isonicotinohydrazide], in that order: 100 µM (≈ 41.5 µg/mL) and 25 µM (≈ 10.4 µg/mL).
Taken in the same sequence, the figures for `NNC(=O)c1ccncc1` [INH, isonicotinic acid hydrazide, reference compound] were 6.25 µM (≈ 0.857 µg/mL) and 1.56 µM (≈ 0.214 µg/mL).
Taken in the same sequence, the figures for `O=C(NN=Cc1ccc(N2CCN(c3ccccn3)CC2)cc1)c1ccncc1` [IP8, N′-(4-(4-(Pyridin-2-yl)piperazin-1-yl)benzylidene)isonicotinohydrazide] were 50 µM (≈ 19.3 µg/mL) and 1.56 µM (≈ 0.603 µg/mL).
